Results from article PMC4284702, “Cloning and Characterization of Farnesyl Diphosphate Synthase Gene Involved in Triterpenoids Biosynthesis from Poria cocos” (International Journal of Molecular Sciences, 2014).

Biological target: rPc-FPS (Pc-FPS, recombinant farnesyl diphosphate synthase of Poria cocos) (Wolfiporia cocos, UniProt K7DW87)
Test: GC of farnesol after acid phosphatase hydrolysis of product FPP
Format: biochemical
Conditions: 2 mM MgCl2, 5 mM DTT, 50 mM MOPS pH 7.5, 30 °C, 3 h

Sequence of rPc-FPS (Pc-FPS, recombinant farnesyl diphosphate synthase of Poria cocos) (K7DW87 entry or part of it): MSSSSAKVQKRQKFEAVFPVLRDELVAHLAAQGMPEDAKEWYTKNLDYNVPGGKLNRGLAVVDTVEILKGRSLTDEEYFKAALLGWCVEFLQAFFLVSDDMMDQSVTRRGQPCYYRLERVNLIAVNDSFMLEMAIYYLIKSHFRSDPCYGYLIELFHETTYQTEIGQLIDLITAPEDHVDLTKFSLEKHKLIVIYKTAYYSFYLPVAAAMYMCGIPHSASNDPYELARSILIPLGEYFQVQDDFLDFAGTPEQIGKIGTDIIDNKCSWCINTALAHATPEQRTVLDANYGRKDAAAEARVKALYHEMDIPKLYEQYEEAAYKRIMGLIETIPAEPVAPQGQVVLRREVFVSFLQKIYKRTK

SMILES | GC of farnesol after acid phosphatase hydrolysis of product FPP (50 uM GPP, co-substrate 50 uM IPP) | GC of farnesol after acid phosphatase hydrolysis of product FPP (50 uM IPP, co-substrate 50 uM GPP)
CC(C)=CCC/C(C)=C/COP(=O)(O)OP(=O)(O)O [GPP] | the purified rPc-FPS was used to catalyze GPP with IPP to produce FPP | –
C=C(C)CCOP(=O)(O)OP(=O)(O)O [IPP] | – | rPc-FPS could catalyze the formation of FPP from GPP and IPP
